The record followed here is ChEMBL document CHEMBL1131852, “Synthesis and antitumor activity of water-soluble duocarmycin B1 prodrugs” (Bioorg Med Chem Lett, 1999).

Usually IC50 stands for the concentration at which inhibition is half-maximal.

Experiment [1] can be described thus: In vivo antitumor activity against Sarcoma 180 at dose 2.0 mg/kg. It is filed as functional, Mus musculus.
Experiment [2] relates to HeLa. In words: In vitro anticellular activity against HeLa S3 cells 1 hr after administration of the compound. It is filed as functional, cell-based. Conditions: Homo sapiens.
In experiment [3] the test system is HeLa. The experiment is described as follows: In vitro anticellular activity against HeLa S3 cells 72 hr after administration of the compound. It is filed as functional, cell-based. The settings on record: Homo sapiens.
Experiment [4] is described as follows: In vivo antitumor activity against Sarcoma 180 at dose 1.0 mg/kg. It is filed as functional, Mus musculus.
Experiment [5] deals with Colon 26. The experiment is described as follows: In vivo antitumor activity against Colon 26 […] at dose 2.0 mg/kg. Type of experiment: functional.
The subject of experiment [6] is Colon 26. The experiment is described as follows: In vivo antitumor activity against Colon 26 […] at dose 1.0 mg/kg. Type of experiment: functional.
The nature of experiment [7]: In vivo antitumor activity against Sarcoma 180 at dose 0.5 mg/kg. It is filed as functional, Mus musculus.
Experiment [8] has as its system Colon 26. In words: In vivo antitumor activity against Colon 26 […] at dose 0.5 mg/kg. It is filed as functional.
The subject of experiment [9] is Colon 26. The experiment is described as follows: In vivo antitumor activity against Colon 26 […] at dose 0.25 mg/kg. It is filed as functional.
A short description of experiment [10]: In vivo antitumor activity against Sarcoma 180 at dose 8.0 mg/kg. It is filed as functional, Mus musculus.
A short description of experiment [11]: In vivo antitumor activity against Sarcoma 180 at dose 16.0 mg/kg. Type of experiment: functional, Mus musculus.

Structures are written as SMILES.

As for `COC(=O)[C@]1(C)Nc2c(OC(=O)N3CCN(C)CC3)cc3c(c2C1=O)C[C@H](Br)CN3C(=O)c1cc2cc(OC)c(OC)c(OC)c2[nH]1.Cl`, the T/C in experiment [1] amounted to 0.083; in experiment [4], 0.19; in the experiment with Colon 26 [5], 0.045; in the experiment on Colon 26 [6], 0.23. The IC50 worked out at 2000 nM in the experiment on HeLa [2] and 70 nM with HeLa [3].

Take `COC(=O)[C@]1(C)Nc2c(O)cc3c(c2C1=O)C[C@H](Br)CN3C(=O)c1cc2cc(OC)c(OC)c(OC)c2[nH]1`: the 50% inhibitory concentration (IC50) was 0.13 nM in the experiment on HeLa [2] and 0.038 nM in the experiment with HeLa [3]. This compound also yielded a T/C in experiment [7] of 0.22.

Turning to `COC(=O)[C@]1(C)Nc2c(OC(=O)N3CCN(C)CC3)cc3c(c2C1=O)[C@H](CBr)CN3C(=O)c1cc2cc(OC)c(OC)c(OC)c2[nH]1.Cl`, the half-inhibitory concentration (IC50) was determined as 170 nM with HeLa [2] and 15 nM in the experiment on HeLa [3]. The T/C with Colon 26 [8] came out at 0.13; in [4], 0.13; with Colon 26 [9] it was 0.37; in [7] it was 0.26.

On to `COC(=O)[C@]1(C)Nc2c(O[C@@H]3OC(CO)[C@@H](O)C(O)[C@@H]3O)cc3c(c2C1=O)C[C@H](Br)CN3C(=O)c1cc2cc(OC)c(OC)c(OC)c2[nH]1` (stereo partly drawn), for which the T/C in experiment [10] came out at 0.55; in experiment [11] it was 0.38. In addition, the concentration for half-maximal inhibition (IC50) in the experiment with HeLa [2] is 2000 nM; in the experiment with HeLa [3] it was 830 nM.

`COC(=O)[C@]1(C)Nc2c(OP(=O)(O)O)cc3c(c2C1=O)C[C@H](Br)CN3C(=O)c1cc2cc(OC)c(OC)c(OC)c2[nH]1`: the IC50 in the experiment with HeLa [2] was determined as 40 nM; in the experiment on HeLa [3] it was 3.2 nM. The T/C in [4] turned out to be 0.29; in [7], 0.57.
